We go through two compounds from patent US20210315824A1, “PHARMACEUTICAL FORMULATIONS COMPRISING NITROCATECHOL DERIVATIVES AND METHODS OF MAKING THE SAME” (BIAL - PORTELA & CA, S.A., priority 2009, published 2021).

The series can be described thus: Bulk and tapped density of granules / API. It counts as physicochemical. The settings on record: API alone, prior to granulation and/or formulation. An excerpt:
It is within the ability of one of skill in the art to determine the bulk density of a compound or composition using methods generally accepted in the art. However, suitable methods include, for example, the European Pharmacopeia edition 6, Test 2.9.15 “apparent volume,” pages 285-286, EDQM, 2007, and USP 31, vol. 1, test <616> page 231-232, The United States Pharmacopeia Convention, 2008. Another example of a suitable method is described below:
Apparatus: • settling apparatus capable of producing in 1 minute 250±15 taps from a height of 3±0.2 mm. The support for the graduated cylinder with its holder, has a mass of 450±5 g • a 250 ml graduated cylinder (2 ml intervals) with a mass of 220±40 g
Method: Into a dry cylinder, introduce without compacting, 100.0 g (m g) of the test substance. […] Read the unsettled apparent volume (V0) to the nearest milliliter. Carry out 10, 500 and 1250 taps and read the corresponding volumes V10, V500, V1250, to the nearest milliliter. […]
Alternatively, if it is not possible to select 100.0 g, select a test sample of any mass but with a volume between 50 ml and 250 ml, measure its apparent volume, V0 as described above, and weigh the sample and specify the mass in the expression of results. Bulk/apparent density may then be determined in g/ml using the following formula: […]
Tapped apparent density may then be determined in g/ml using the following formula: […]

Regarding `Cc1c(Cl)c(C)[n+]([O-])c(Cl)c1-c1noc(-c2cc(O)c(O)c([N+](=O)[O-])c2)n1` [2,5-dichloro-3-(5-(3,4-dihydroxy-5-nitrophenyl)-1,2,4-oxadiazol-3-yl)-4,6-dimethylpyridine 1-oxide], the bulk density result is listed as “less than 0.1 g/ml”.
On to `Cc1nc(Cl)c(-c2noc(-c3cc(O)c(O)c([N+](=O)[O-])c3)n2)c(C)c1Cl` [5-[3-(2,5-dichloro-4,6-dimethylpyridin-3-yl)-[1,2,4]oxadiazol-5-yl]-3-nitrobenzene-1,2-diol], for which the bulk density entry is “around 0.2 g/ml”.
